≈ marks a conversion by molar mass, not a printed value. Where two headings read alike, the source gives them in different places. Non-standard residues stand in square brackets, D forms with d. Residues, ends and D or L forms follow the SMILES beside them. N(5-aminopentyl)Gly = NCCCCCNCC(=O)O; Gly(NCH2CH2Ph) = O=C(O)CNCCc1ccccc1; hPhe = N[C@@H](CCc1ccccc1)C(=O)O; hLys = NCCCCC[C@H](N)C(=O)O; Nphe = O=C(O)CNCc1ccccc1; Orn = NCCC[C@H](N)C(=O)O; Dab = NCC[C@H](N)C(=O)O
Assays:
[1] = Relative hydrophobicity by RP-HPLC (% MeCN at peak elution); type: physicochemical; conditions: RP-HPLC gradient 0 → 60% B during 10 min; % MeCN at peak elution calculated from retention time
Protocol: The relative hydrophobicity of each peptidomimetic was measured by reverse-phase high-performance liquid chromatography (RP-HPLC). Typically, the RP-HPLC retention time (or percentage acetonitrile at peak elution) constitutes the preferred measure that allows for comparison of relative hydrophobicity, while log P values of polycationic peptides or peptidomimetics normally are considered unsuitable due to the extreme hydrophilic nature of such compounds [11, 45, 57, 58, 59, 60]. […] For both subgroups III (with cationic amino acid residues and the peptoid analogue of Phe, NPhe, i.e., 9–12) and IV (with cationic amino acid residues and the peptoid analogue of hPhe, NhPhe, i.e., 13–16) only minor differences in hydrophobicity were seen. These observations infer that, when the cationic residues are of a peptoid nature, the side-chain length of these has a […] influence on the hydrophobicity. […] Thus, introduction of additional six methylene groups results, as expected, in increased hydrophobicity.
Starting materials and solvents were purchased from commercial suppliers (Iris Biotech, Markredwitz, Germany; Fluorochem, Hadfield, United Kingdom; and Merck, Darmstadt, Germany) and used without further purification. Water used for analytical and preparative high-performance liquid chromatography (HPLC) was filtered through a 0.22-μm Millipore membrane filter. Purity and retention time of each peptidomimetic were determined by analytical UHPLC by using a Phenomenex Luna C18(2) HST column (100 mm × 3 mm; particle size: 2.5 μm; pore size: 100 Å) on a Shimadzu Prominence and Shimadzu Nexera system using an aqueous acetonitrile (MeCN) gradient with 0.1% trifluoroacetic acid (TFA) added (eluent A: 5:95 MeCN–H2O + 0.1% TFA, eluent B: 95:5 MeCN–H2O + 0.1% TFA); a flow rate of 0.5 mL/min was used. For elution of peptidomimetics, a linear gradient of 0% to 60% B during 10 min was used with UV detection at λ = 220 nm. […] For each peptidomimetic, the percentage of MeCN at peak elution was calculated from the retention time by using the following formula:(1) %MeCN = 0.95 (0.6Rt/10 min.) + 0.05 (1−0.6Rt/10 min.).

E. coli ATCC 25922 = type: cell-based
Protocol: (§1) MIC values were evaluated by using the modified Hancock lab protocol in non-binding polystyrene microtitre plates, with bacterial suspensions of ∼2 × 10^5 CFU/mL in Mueller-Hinton broth (Difco, Sparks MD, USA), with Mg^2+ and Ca^2+ concentrations of 4 mg/L each. The compounds were dissolved in H2O and diluted in 0.01% acetic acid, 0.2% BSA (final concentration). Aliquots of 11 µL of 10 × test compounds were then transferred to the appropriate wells with bacterial suspensions. For preparation and transfer of the solutions of the compounds, low-binding sterile tubes and tips (Axygen, Union City CA, USA) were used. After 20 h incubation of covered plates at 35 °C (±2 °C) with circular shaking at 220 rpm, the MICs were read. The antibacterial activity of peptidomimetics was tested against E. coli ATCC 25922, K. pneumoniae ATCC 13883, P. aeruginosa ATCC 27853, P. aeruginosa PAO1, A. baumannii ATCC 19606, S. aureus ATCC 29213, and E. faecalis ATCC 29212.

E. faecalis ATCC 29212 = type: cell-based
Protocol: as §1

K. pneumoniae ATCC 13883 = type: cell-based
Protocol: as §1

P. aeruginosa ATCC 27853 = type: cell-based
Protocol: as §1

P. aeruginosa PAO1 = type: cell-based
Protocol: as §1

S. aureus ATCC 29213 = type: cell-based
Protocol: as §1

[2] = tested on: HepG2 cell line ATCC HB-8065; experiment: in vitro; type: cell-based; conditions: 48 h
Protocol: Side effects affecting cell viability were estimated on the HepG2 cell line ATCC HB-8065. In brief, HepG2 cells were seeded in flat-bottomed 96-well plates at a concentration of 5000 cells per well. At 80−90% confluency, the cells were incubated for 24 h in a humidified incubator (5% CO2, 37 °C). The medium was removed, and the cells were incubated for 48 h in a humidified incubator (5% CO2, 37 °C) with compounds in two-fold serial dilutions. An MTT assay was then performed as previously described. In brief, after incubation with the test compounds, the culture medium was removed and fresh medium with 0.2 mg/mL MTT was added in each well of the plate. After incubation (3 h, 37 °C, 5% CO2), the medium with MTT was removed, and 200 μL dimethyl sulfoxide were added at once to each sample. Absorbance of MTT was measured using spectrophotometer TECAN Infinite M1000 at 540 nm. The relative viability was calculated by using the formula: ODtreated cells × 100/ODcontrol cells. The IC50 values are calculated by using the program Graph Pad Prism® 5.0. For all compounds, the test range was 10–1280 μg/mL.

in vitro = type: cell-based; conditions: human, Hemolytic Activity (percentage hemolysis)
Protocol: The lysis of human red blood cells was measured as previously described, with modifications. In brief, freshly drawn human red blood cells (hRBCs) were washed three times with PBS buffer and centrifuged two times for 5 min at 2500 rpm. A two-fold serial dilution of peptidomimetics in PBS buffer was added to each well in a sterile polypropylene V-bottom 96-well plate to the total volume of 75 μL. A 0.5% v/v hRBC suspension (75 μL in PBS buffer) was added to each well to reach a final volume of 150 μL in each well. The plate was incubated (37 °C) for 60 min, and then the cells were subsequently pelleted by centrifugation at 1000 rpm for 5 min. The supernatants (50 μL) were transferred to clear, flat-bottomed plastic 96-well plates. The concentration of hemoglobin was detected by measuring the OD at 405 nm. The OD of cells incubated with 0.1% SDS defined 100% hemolysis, while the OD of cells incubated with PBS buffer defined 0% hemolysis. The concentrations tested were 200, 400, and 800 μg/mL (only average values for the highest concentration are stated in Table 2).

A. baumannii ATCC 19606 = type: cell-based
Protocol: as §1

Compound: NCCCCCNCC(=O)N[C@@H](CCc1ccccc1)C(=O)N(CCCCCN)CC(=O)N[C@@H](CCc1ccccc1)C(=O)N(CCCCCN)CC(=O)N[C@@H](CCc1ccccc1)C(=O)N(CCCCCN)CC(=O)N[C@@H](CCc1ccccc1)C(=O)N(CCCCCN)CC(=O)N[C@@H](CCc1ccccc1)C(=O)N(CCCCCN)CC(=O)N[C@@H](CCc1ccccc1)C(N)=O [Peptidomimetic 8] (H-[N(5-aminopentyl)Gly][hPhe][N(5-aminopentyl)Gly][hPhe][N(5-aminopentyl)Gly][hPhe][N(5-aminopentyl)Gly][hPhe][N(5-aminopentyl)Gly][hPhe][N(5-aminopentyl)Gly][hPhe]-NH2)
- Hydrophobicity (% MeCN at elution) [1]: 40.9%
- MIC (E. coli ATCC 25922; ATCC 25922, 20 h): 2 µg/mL (≈ 1.09 µM)
- MIC (E. faecalis ATCC 29212; ATCC 29212, 20 h): >64 µg/mL
- MIC (K. pneumoniae ATCC 13883; ATCC 13883, 20 h): 64 µg/mL (≈ 34.8 µM)
- MIC (P. aeruginosa ATCC 27853; ATCC 27853, 20 h): 64 µg/mL (≈ 34.8 µM)
- MIC (P. aeruginosa PAO1; PAO1, 20 h): 64 µg/mL (≈ 34.8 µM)
- MIC (S. aureus ATCC 29213; ATCC 29213, 20 h): >64 µg/mL
- IC50 for inhibiting growth of HepG2 cells [2]: 266 µg/mL
- hemolysis at 60 min, 800 µg/mL (in vitro): 9%

Compound: NCC[C@H](NC(=O)CN(Cc1ccccc1)C(=O)[C@H](CCN)NC(=O)CN(Cc1ccccc1)C(=O)[C@H](CCN)NC(=O)CN(Cc1ccccc1)C(=O)[C@H](CCN)NC(=O)CN(Cc1ccccc1)C(=O)[C@H](CCN)NC(=O)CN(Cc1ccccc1)C(=O)[C@@H](N)CCN)C(=O)N(CC(N)=O)Cc1ccccc1 [Peptidomimetic 9] (H-[Dab][Nphe][Dab][Nphe][Dab][Nphe][Dab][Nphe][Dab][Nphe][Dab][Nphe]-NH2)
- MIC (E. coli ATCC 25922; ATCC 25922, 20 h): 2 to 4 µg/mL
- MIC (E. faecalis ATCC 29212; ATCC 29212, 20 h): >64 µg/mL
- MIC (K. pneumoniae ATCC 13883; ATCC 13883, 20 h): 32 to 64 µg/mL
- MIC (P. aeruginosa ATCC 27853; ATCC 27853, 20 h): 1 µg/mL (≈ 0.666 µM)
- MIC (P. aeruginosa PAO1; PAO1, 20 h): 2 µg/mL (≈ 1.33 µM)
- MIC (S. aureus ATCC 29213; ATCC 29213, 20 h): >64 µg/mL
- IC50 for inhibiting growth of HepG2 cells [2]: 326 µg/mL
- hemolysis at 60 min, 800 µg/mL (in vitro): 79%

Compound: NCCC[C@H](NC(=O)CN(Cc1ccccc1)C(=O)[C@H](CCCN)NC(=O)CN(Cc1ccccc1)C(=O)[C@H](CCCN)NC(=O)CN(Cc1ccccc1)C(=O)[C@H](CCCN)NC(=O)CN(Cc1ccccc1)C(=O)[C@H](CCCN)NC(=O)CN(Cc1ccccc1)C(=O)[C@@H](N)CCCN)C(=O)N(CC(N)=O)Cc1ccccc1 [Peptidomimetic 10] (H-[Orn][Nphe][Orn][Nphe][Orn][Nphe][Orn][Nphe][Orn][Nphe][Orn][Nphe]-NH2)
- MIC (E. coli ATCC 25922; ATCC 25922, 20 h): 4 to 8 µg/mL
- MIC (E. faecalis ATCC 29212; ATCC 29212, 20 h): >64 µg/mL
- MIC (K. pneumoniae ATCC 13883; ATCC 13883, 20 h): >64 µg/mL
- MIC (P. aeruginosa ATCC 27853; ATCC 27853, 20 h): 2 to 4 µg/mL
- MIC (P. aeruginosa PAO1; PAO1, 20 h): 4 to 8 µg/mL
- MIC (S. aureus ATCC 29213; ATCC 29213, 20 h): >64 µg/mL
- IC50 for inhibiting growth of HepG2 cells [2]: 923 µg/mL
- hemolysis at 60 min, 800 µg/mL (in vitro): 10%

Compound: NCC[C@H](NC(=O)CN(CCc1ccccc1)C(=O)[C@H](CCN)NC(=O)CN(CCc1ccccc1)C(=O)[C@H](CCN)NC(=O)CN(CCc1ccccc1)C(=O)[C@H](CCN)NC(=O)CN(CCc1ccccc1)C(=O)[C@H](CCN)NC(=O)CN(CCc1ccccc1)C(=O)[C@@H](N)CCN)C(=O)N(CCc1ccccc1)CC(N)=O [Peptidomimetic 13] (H-[Dab][Gly(NCH2CH2Ph)][Dab][Gly(NCH2CH2Ph)][Dab][Gly(NCH2CH2Ph)][Dab][Gly(NCH2CH2Ph)][Dab][Gly(NCH2CH2Ph)][Dab][Gly(NCH2CH2Ph)]-NH2)
- MIC (A. baumannii ATCC 19606; ATCC 19606, 20 h): >64 µg/mL
- MIC (E. coli ATCC 25922; ATCC 25922, 20 h): 4 µg/mL (≈ 2.52 µM)
- MIC (E. faecalis ATCC 29212; ATCC 29212, 20 h): >64 µg/mL
- MIC (K. pneumoniae ATCC 13883; ATCC 13883, 20 h): 32 µg/mL (≈ 20.2 µM)
- MIC (P. aeruginosa ATCC 27853; ATCC 27853, 20 h): 2 µg/mL (≈ 1.26 µM)
- MIC (P. aeruginosa PAO1; PAO1, 20 h): 2 to 4 µg/mL
- MIC (S. aureus ATCC 29213; ATCC 29213, 20 h): >64 µg/mL
- IC50 for inhibiting growth of HepG2 cells [2]: 261 µg/mL
- hemolysis at 60 min, 800 µg/mL (in vitro): 53%

Compound: NCCCCC[C@H](NC(=O)CN(CCc1ccccc1)C(=O)[C@H](CCCCCN)NC(=O)CN(CCc1ccccc1)C(=O)[C@H](CCCCCN)NC(=O)CN(CCc1ccccc1)C(=O)[C@H](CCCCCN)NC(=O)CN(CCc1ccccc1)C(=O)[C@H](CCCCCN)NC(=O)CN(CCc1ccccc1)C(=O)[C@@H](N)CCCCCN)C(=O)N(CCc1ccccc1)CC(N)=O [Peptidomimetic 16] (H-[hLys][Gly(NCH2CH2Ph)][hLys][Gly(NCH2CH2Ph)][hLys][Gly(NCH2CH2Ph)][hLys][Gly(NCH2CH2Ph)][hLys][Gly(NCH2CH2Ph)][hLys][Gly(NCH2CH2Ph)]-NH2)
- Hydrophobicity (% MeCN at elution) [1]: 41.1%
- MIC (E. coli ATCC 25922; ATCC 25922, 20 h): 4 µg/mL (≈ 2.18 µM)
- MIC (E. faecalis ATCC 29212; ATCC 29212, 20 h): >64 µg/mL
- MIC (K. pneumoniae ATCC 13883; ATCC 13883, 20 h): >64 µg/mL
- MIC (P. aeruginosa ATCC 27853; ATCC 27853, 20 h): 16 µg/mL (≈ 8.71 µM)
- MIC (P. aeruginosa PAO1; PAO1, 20 h): 32 µg/mL (≈ 17.4 µM)
- MIC (S. aureus ATCC 29213; ATCC 29213, 20 h): >64 µg/mL
- IC50 for inhibiting growth of HepG2 cells [2]: 410 µg/mL
- hemolysis at 60 min, 800 µg/mL (in vitro): 9%

Compound: Colistin [reference compound]
- MIC (A. baumannii ATCC 19606; A. baumannii ATCC 19606, Gram-negative, 20 h, Mueller-Hinton broth): 0.5 µg/mL
- MIC (E. coli ATCC 25922; E. coli ATCC 25922, Gram-negative, 20 h, Mueller-Hinton broth): 0.125 to 0.25 µg/mL
- MIC (E. faecalis ATCC 29212; E. faecalis ATCC 29212, Gram-positive, 20 h, Mueller-Hinton broth): >64 µg/mL
- MIC (K. pneumoniae ATCC 13883; K. pneumoniae ATCC 13883, Gram-negative, 20 h, Mueller-Hinton broth): 0.25 µg/mL
- MIC (P. aeruginosa ATCC 27853; P. aeruginosa ATCC 27853, Gram-negative, 20 h, Mueller-Hinton broth): 0.125 to 0.25 µg/mL
- MIC (P. aeruginosa PAO1; P. aeruginosa PAO1, Gram-negative, 20 h, Mueller-Hinton broth): 0.5 µg/mL
- MIC (S. aureus ATCC 29213; S. aureus ATCC 29213, Gram-positive, 20 h, Mueller-Hinton broth): >64 µg/mL
